Measurements reported in ChEMBL document CHEMBL4699657, “Fragment-to-Lead Medicinal Chemistry Publications in 2019” (J Med Chem, 2020).

Assay: Inhibition of Influenza A/California/04/09 H1N1 PA endonuclease (1 to 204 residues) expressed in Escherichia coli BL21 (RIL) cells using (6-FAM)TGGCAATATCAGCTCCACA(MGBNFQ) DNA probe as substrate measured after 5 to 90 mins by fluorescence assay
Parameters: species or system Influenza A virus (A/California/04/2009(H1N1))

Row | Structure (SMILES) | IC50 [µM]
1 | O=c1[nH]cc(Br)cc1O | 16
2 | O=C(O)c1ccc(-c2cc(O)c(=O)[nH]c2-c2ccc(F)cc2)cc1 | 0.011
